Assays:
[1] = test system: HUVECs; assay: Electrical Cell-substrate Impedance Sensing (ECIS) of HUVEC monolayers, thrombin stimulation; assay type: cell-based, human
Procedure: (§1) For ECIS measurements, cells were trypsinized and seeded in 1:1 density on gelatine-coated ECIS arrays, each containing 8 wells with 10 gold electrodes/well (8 W10E, Applied Biophysics, Troy, N.Y., USA). Culture medium was refreshed 24 h after seeding, while experiments were performed 48 h after seeding. For pretreatment, designated pharmacological inhibitors or vector were dissolved in M199 supplemented with 1% HSA. After 90 min of pretreatment, thrombin was added directly to the cells for a final concentration of 1 U/mL. During stimulation impedance was measured at multiple frequencies to allow for calculation of resistance attributable to cell-cell adhesion (Rb) and resistance attributable to cell-matrix interaction (alpha). The absolute resistance was measured, while the relative resistance was calculated by normalization to the time point just before addition of the thrombin, to correct for baseline differences.

[2] = test system: HUVECs; assay: HRP passage across thrombin-stimulated HUVEC monolayers on porous filters; assay type: cell-based, human; settings: for effect on thrombin-induced HRP passage: HUVECs
Procedure: (§2) Endothelial barrier function was evaluated with horse radish peroxidase (HRP) passage and Electrical Cell-substrate Impedance Sensing (ECIS). For measurement of HRP passage, confluent cells were seeded in 1:1 density on 0.33 cm^2 Costar polycarbonate filters, pore-size 3.0 μm (Corning, Lowell, Mass., USA) and grown to confluence in 4 or 5 days, with change of culture medium every other day. For pretreatment, pharmacological inhibitors or vector were dissolved in M199 supplemented with 1% human serum albumin (HSA, Sanquin CLB), and after removal of culture medium, solutions were added to the upper compartment of the filters during 60 min. For stimulation, pretreatment medium was changed for 1% HSA/M199 containing designated inhibitors, HRP 5 μg/mL (Sigma Aldrich) and thrombin 1 U/mL. 1% HSA/M199 was added to the lower compartment. At indicated time points samples were taken from the lower compartment; HRP concentration in samples was detected by measuring chemoluminiscence after addition of TMB/E (Upstate/Millipore).

[3] = test system: human pulmonary microvascular endothelial cells (HPMVECs); assay: HRP passage over HPMVEC monolayers, thrombin stimulation; assay type: cell-based; settings: imatinib 10 μM, thrombin 1 U/mL
Procedure: as §2

[4] = test system: RhoA; assay: G-LISA RhoA Activity Assay in HUVEC lysates; assay type: cell-based, human; settings: HUVECs; imatinib 10 μM; thrombin 1 U/mL
Procedure: After stimulation, cells were washed with ice-cold PBS and lysed with lysis buffer containing […] Tris/HCl pH 8.0, 0.15M NaCl, 0.09M KCl, 2 mM EDTA/NaOH pH 8.0, 5% Igepal, and 0.5% Triton X-100, further supplemented with PhosStop […] inhibitor (Roche Diagnostics, Mannheim, Germany), and Complete EDTA-free […] inhibitor (Roche Diagnostics). After centrifugation of the cell lysates, the supernatant was snap-frozen and stored at −80° C. Relative RhoA activity was determined with a G-LISA RhoA Activity Assay (Cytoskeleton Inc, Denver, Colo., USA), according to the manufacturers protocol.

[5] = test system: human pulmonary microvascular endothelial cells (HPMVECs); assay: ECIS of HPMVEC monolayers, thrombin stimulation; assay type: cell-based; settings: imatinib 10 μM, thrombin 1 U/mL
Procedure: as §1

[6] = test system: human foreskin microvascular endothelial cells (HFMVECs); assay: ECIS of HFMVEC monolayers, thrombin stimulation; assay type: cell-based; settings: imatinib 10 μM, thrombin 1 U/mL
Procedure: as §1

[7] = test system: HUVECs; assay: Immunofluorescence staining of VE-cadherin, β-catenin and F-actin in thrombin-stimulated HUVECs; assay type: cell-based, human
Procedure: Cells were seeded on glass coverslips coated with gelatine 1% and pretreated with glutaraldehyde 0.5% (Fluka, St. Gallen, Switzerland). Cells were seeded in 1:1 density and grown to confluence in 48-72 hours. For pretreatment, culture medium was changed to 1% HSA/M199, containing pharmacological inhibitors or vector. After 60 min of pretreatment, thrombin was added directly to the wells for a final concentration of 1 U/mL. At indicated time points, medium was removed and warm paraformaldehyde 2% (Sigma Aldrich) was added to the cells, while kept on ice for 15 min. Cells were permeabilized with Triton X-100 0.05% (Sigma Aldrich) in phosphate-buffered saline (PBS), and incubated overnight with primary antibodies for β-catenin (1:100), VE-cadherin (1:400) or Arg (1:150) in 0.1% HSA/PBS. Subsequently, cells were washed and incubated with FITC-labeled secondary antibodies (Invitrogen, Paisly, United Kingdom) and rhodamine/phalloidin (Invitrogen) for 1 h at room temperature. Cells were washed and sealed in Vectashield mounting medium containing DAPI (Vector Laboratories Inc., Burlingham, Calif., USA) for nuclear staining. Immunofluorescent imaging was performed with an Axiovert 200 Marianas™ inverted wide-field fluorescence microscope, using a 40× Zeiss air lens (NA 0.75) and a 63× Zeiss oil lens (NA 1.4). […]

[8] = HUVECs transfected with Arg siRNA, imatinib 10 μM, thrombin 1 U/mL
[9] = HUVECs, imatinib 10 μM, thrombin 1 U/mL

Structure (SMILES) | basal endothelial barrier function / basal endothelial resistance (ECIS) ([1]; HUVECs, no thrombin) | effect on thrombin-induced decrease in endothelial resistance (thrombin response, words) ([1]; HUVECs, thrombin 1 U/mL) | effect on thrombin-induced HRP passage ([2]; thrombin 1 U/mL) | HRP passage in Arg deficient cells, imatinib vs DMSO pretreatment [2, 8] | inhibition at 10 µM ([2]; Homo sapiens, HUVEC, read-out: inhibition of thrombin-induced HRP passage) [%] | thrombin-induced macromolecule passage [3] | thrombin-induced RhoA activity [4] | maximal drop in endothelial resistance [5] | effects on Rb and alpha ([5]; compared with HUVECs) | decrease in normalized resistance in Arg deficient cells, imatinib pretreatment [1, 8] | thrombin response in c-Abl deficient cells ([1]; HUVECs transfected with c-Abl siRNA, imatinib 10 μM, thrombin 1 U/mL) | maximal drop in electrical resistance ([1]; HUVECs, imatinib 10 μM, Y-27632 10 μM, thrombin 1 U/mL, FIGS. 2C and D) | maximal decrease in normalized Rb (cell-cell interaction) [1, 9] | thrombin-induced drop in cell-matrix interaction (alpha) [1, 9] | maximal decrease in normalized resistance ([1]; HUVECs, thrombin 1 U/mL, FIGS. 1B and 1C) | effect on thrombin-induced decrease in endothelial resistance (thrombin response, words) ([1]; HUVECs, thrombin 1 U/mL, listed as Imatinib) | thrombin-induced maximal drop in endothelial resistance [6] | thrombin-induced loss of VE-cadherin and β-catenin from the membrane ([7]; imatinib 10 μM, thrombin 30 min) | F-actin organization after thrombin ([7]; imatinib pretreated, thrombin 15 min)
COc1cc2ncc(-c3ccccc3)nc2cc1OC [AG1296] | improved | did not inhibit |  |  |  |  |  |  |  |  |  |  |  |  |  |  |  |  | 
C[C@@H](N)[C@H]1CC[C@H](C(=O)Nc2ccncc2)CC1 [Y-27632] |  | reduced | reduced |  |  |  |  |  |  |  |  |  |  |  |  |  |  |  | 
Cc1ccc(NC(=O)c2ccc(CN3CCN(C)CC3)cc2)cc1Nc1nccc(-c2cccnc2)n1 [imatinib, 4-[(4-methyl-1-piperazinyl)methyl]-N-[4-methyl-3-[[(4-(3-pyridinyl)-2-pyrimidinyl]amino]-phenyl]benzamidemethane sulfonate] |  | reduced | reduced | significantly lower | 35 to 44 | reduced | not affected | attenuated | Comparable effects | no additive effect | still attenuated | −0.44±0.02 | −0.87±0.03 | attenuation | −0.41±0.03 | attenuated | attenuated | partly reversed | not organized in F-actin stress fibers

— US9290765B2, “Protection against endothelial barrier dysfunction through inhibition of the tyrosine kinase abl-related gene (ARG)” (VERENIGING VOOR CHRISTELIJK HOGER ONDERWIJS, …, priority 2011, dated 2016)
